Key:
[1] = target: T1, Solute carrier organic anion transporter family member 1A4 (Rattus norvegicus, UniProt O35913); assay: TP_TRANSPORTER: inhibition of Taurocholate uptake (Taurochorate: 1 uM, E217betaG: 200 uM, data not shown) in Xenopus laevis oocytes; format: functional, cell-based; conditions: oocyte
T1 sequence (O35913 whole entry): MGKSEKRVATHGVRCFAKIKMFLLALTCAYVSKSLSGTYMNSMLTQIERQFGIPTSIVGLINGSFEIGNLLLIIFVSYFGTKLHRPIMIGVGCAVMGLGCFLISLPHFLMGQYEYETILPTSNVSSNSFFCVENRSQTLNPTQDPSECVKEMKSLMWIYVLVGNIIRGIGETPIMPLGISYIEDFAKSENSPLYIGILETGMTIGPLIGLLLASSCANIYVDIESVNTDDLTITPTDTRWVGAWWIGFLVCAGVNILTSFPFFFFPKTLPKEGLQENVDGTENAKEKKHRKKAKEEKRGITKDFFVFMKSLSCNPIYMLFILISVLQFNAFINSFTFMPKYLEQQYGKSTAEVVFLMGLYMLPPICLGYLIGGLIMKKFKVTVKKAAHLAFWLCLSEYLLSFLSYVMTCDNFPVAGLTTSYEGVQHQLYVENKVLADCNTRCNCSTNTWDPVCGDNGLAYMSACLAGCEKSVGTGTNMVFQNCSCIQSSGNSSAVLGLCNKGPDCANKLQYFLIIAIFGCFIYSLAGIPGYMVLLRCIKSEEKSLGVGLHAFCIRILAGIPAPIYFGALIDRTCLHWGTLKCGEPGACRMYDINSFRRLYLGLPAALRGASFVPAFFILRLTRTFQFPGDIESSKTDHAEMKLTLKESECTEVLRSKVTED

[2] = target: T1, Solute carrier organic anion transporter family member 1A4; assay: TP_TRANSPORTER: inhibition of Taurocholate uptake (Taurochorate: 1 uM, T4: 200 uM, data not shown) in Xenopus laevis oocytes; format: functional, cell-based; conditions: oocyte
[3] = target: T1, Solute carrier organic anion transporter family member 1A4; assay: TP_TRANSPORTER: inhibition of Taurocholate uptake (Taurochorate: 1 uM, T3: 200 uM, data not shown) in Xenopus laevis oocytes; format: functional, cell-based; conditions: oocyte
[4] = target: T1, Solute carrier organic anion transporter family member 1A4; assay: TP_TRANSPORTER: inhibition of Taurocholate uptake (Taurochorate: 1 uM, BSP: 200 uM, data not shown) in Xenopus laevis oocytes; format: functional, cell-based; conditions: oocyte
[5] = substrate: N[C@@H](Cc1cc(I)c(Oc2cc(I)c(O)c(I)c2)c(I)c1)C(=O)O; assay: (§1) TP_TRANSPORTER: uptake in Xenopus laevis oocytes; format: functional, cell-based, Oocyte
[6] = substrate: N[C@@H](Cc1cc(I)c(Oc2ccc(O)c(I)c2)c(I)c1)C(=O)O; assay: as §1; format: functional, cell-based, Oocyte

Molecule | Km [5] [µM] | Km [6] [µM] | also measured
C[C@]12CC[C@@H]3c4ccc(O)cc4CC[C@H]3[C@@H]1CC[C@@H]2O[C@@H]1O[C@H](C(=O)O)[C@@H](O)[C@H](O)[C@H]1O [ESTRADIOL 17B GLUCURONIDE] | – | – | Activity [1]: inhibitor [+]
N[C@@H](Cc1cc(I)c(Oc2cc(I)c(O)c(I)c2)c(I)c1)C(=O)O [LEVOTHYROXINE] | – | – | Activity [2]: inhibitor [+]
N[C@@H](Cc1cc(I)c(Oc2ccc(O)c(I)c2)c(I)c1)C(=O)O [LIOTHYRONINE] | – | – | Activity [3]: inhibitor [+]
O=C1OC(c2ccc(O)c(S(=O)(=O)[O-])c2)(c2ccc(O)c(S(=O)(=O)[O-])c2)c2c(Br)c(Br)c(Br)c(Br)c21.[Na+].[Na+] [SULFOBROMOPHTHALEIN SODIUM] | – | – | Activity [4]: inhibitor [+]
Solute carrier organic anion transporter family member 1A5 (Rattus norvegicus) (protein) MGETEKRVATHEVRCFSKIKMFLLALTWAYVSKSLSGIYMNTMLTQIERQFDIPTSIVGFINGSFEIGNLLLIIFVSYFGTKLHRPIMIGVGCVIMGLGCFLMSLPHFLMGRYEYETTISPTSNLSSNSFLCMENRSQTLKPTQDPAECIKEMKSLMWIYVLVGNIIRGIGETPIMPLGISYIEDFAKSENSPLYIGILETGKVFGPIVGLLLGSFCASIYVDTGSVNTDDLTITPTDTRWVGAWWIGFLICAGVNILSSIPFFFFPKTLPKEGLQDDVDGTNNDKEEKHREKAKEENRGITKDFLPFMKSLSCNPIYMLLILTSVLQINAFINMFTFLPKYLEQQYGKSTAEVVLLIGVYNLPPICIGYLLIGFIMKKFKITVKKAAYMAFCLSLFEYLLYFLHFMITCDNFPVAGLTASYEGVHHPLYVENKVLADCNRGCSCSTNSWDPVCGDNGLAYMSACLAGCKKSVGTGTNMVFQNCSCIRSSGNSSAVLGLCKKGPECANKLQYFLIMSVIGSFIYSITAIPGYMVLLRCIKPEEKSLGIGLHAFCTRVFAGIPAPIYFGALIDRTCLHWGTLKCGEPGACRMYNINNFRRIYLVLPAALRGSSYLPALFILILMRKFQFPGEIDSSETELAEMKITVKKSECTDVHGSPQVENDGELKTRL | 4.93 | 7.33 | –
Solute carrier organic anion transporter family member 1A4 (Rattus norvegicus) (protein) MGKSEKRVATHGVRCFAKIKMFLLALTCAYVSKSLSGTYMNSMLTQIERQFGIPTSIVGLINGSFEIGNLLLIIFVSYFGTKLHRPIMIGVGCAVMGLGCFLISLPHFLMGQYEYETILPTSNVSSNSFFCVENRSQTLNPTQDPSECVKEMKSLMWIYVLVGNIIRGIGETPIMPLGISYIEDFAKSENSPLYIGILETGMTIGPLIGLLLASSCANIYVDIESVNTDDLTITPTDTRWVGAWWIGFLVCAGVNILTSFPFFFFPKTLPKEGLQENVDGTENAKEKKHRKKAKEEKRGITKDFFVFMKSLSCNPIYMLFILISVLQFNAFINSFTFMPKYLEQQYGKSTAEVVFLMGLYMLPPICLGYLIGGLIMKKFKVTVKKAAHLAFWLCLSEYLLSFLSYVMTCDNFPVAGLTTSYEGVQHQLYVENKVLADCNTRCNCSTNTWDPVCGDNGLAYMSACLAGCEKSVGTGTNMVFQNCSCIQSSGNSSAVLGLCNKGPDCANKLQYFLIIAIFGCFIYSLAGIPGYMVLLRCIKSEEKSLGVGLHAFCIRILAGIPAPIYFGALIDRTCLHWGTLKCGEPGACRMYDINSFRRLYLGLPAALRGASFVPAFFILRLTRTFQFPGDIESSKTDHAEMKLTLKESECTEVLRSKVTED | 6.53 | 5.87 | –

From ChEMBL document CHEMBL2074037, “Molecular characterization and tissue distribution of a new organic anion transporter subtype (oatp3) that transports thyroid hormones and taurocholate and comparison with oatp2” (J Biol Chem, 1998)
